Patent US9018248B2, “Fatty acid derivatives of catechins and methods of their use” (Genesis Group Inc., priority 2010, dated 2015)

Experiments:
HCV NS3/4A protease = HCV NS3/4A protease (Hepatitis C virus genotype 1a, UniProt P27958); experiment: Inhibition against HCV protease; assay type: biochemical
Method: An aliquot (2 μl) of test compounds dissolved in DMSO was added to each well of a 384-well black Assay plate, followed by addition of 8 μl of HCV NS3/4A protease solution (0.5 μg/ml). The reaction was initiated by adding 10 μl of freshly diluted substrate (100× dilution of a DMSO stocking solution). The mixture was incubated at room temperature for 30 min, and the fluorescence intensity was measured at 485 nm for excitation and 535 nm for emission by a TECAN GENios plate reader. […] All fluorescence values were corrected with a substrate blank. Samples were assayed at different concentrations to plot a concentration VS. inhibition percentage curve, and IC50 values were obtained from the curve for each sample. A known HCV protease inhibitor, embelin, was used as a reference. Discussion

[1] = system: colon ACF and colon tumors in AOM treated mice; experiment: AOM-treated mice, colon aberrant crypt foci and tumors; assay type: in vivo, ICR mice
Method: (§1) Male ICR mice at 5 weeks of age were purchased from the BioLASCO Experimental Animal Center (Taiwan Co., Ltd). After 1 week of acclimation, animals were randomly distributed into control and experimental groups. All animals were housed in a controlled atmosphere (25±1° C. at 50% relative humidity) and with a 12-hour light/12-hour dark cycle. Animals had free access to food and water at all times. Food cups were replenished with fresh diet every day. The experimental protocol is illustrated in FIG. 6. Mice were divided into 6 groups. One group (negative control) was fed standard diet; one group (positive control) was fed standard diet but injected with azozymethane (AOM) twice a week for 2 weeks; the remaining 4 groups had AOM injection and dietary supplementation of different levels of EGCG esters (1a and EGCG-DHA ester mixture containing predominantly 1c and its homologues). 9(b): Identification of ACF The formalin-fixed colonic tissues were cut into proximal (1-2 cm from the cecum), middle (3-4 cm) and distal (1-2 cm from anus) segments and stained in 0.2% methylene blue solution for 10 min. Methylene blue-stained ACF in each focus were counted under a microscope (×40). The ACF location (distance from anus) and size (number of aberrant crypts) were recorded. […] The densities of the bands were quantitated with a computer densitometer (AlphaImager™ 2200 System). […]

iNOS [2] = experiment: iNOS expression in colon of AOM-treated mice (western blot); assay type: in vivo, ICR mice; conditions: western blot of colon mucosa
Method: as §1

COX-2 [3] = experiment: COX-2 expression in colon of AOM-treated mice (western blot); assay type: in vivo, ICR mice; conditions: western blot of colon mucosa
Method: as §1

iNOS [4] = experiment: iNOS protein expression in LPS-stimulated RAW 264.7 macrophages (western blot); assay type: cell-based, murine; conditions: LPS 100 ng/ml, RAW 264.7, western blot; 20 and 40 μM for 1a-1c
Method: RAW 264.7 cells were cultured in Rosewell Park Memorial Institute (RPMI) 1640 media (without phenol red) supplemented with 10% endotoxin-free, heat-inactivated fetal calf serum, 100 units/ml penicillin, and 100 μg/ml streptomycin. When the cells reached a density of 2-3×10^6 cells/ml, they were activated by incubation in a medium containing E. coli lipopolysaccharide (LPS) (100 ng/ml). Various concentrations of compounds of the disclosure in dimethyl sulphoxide (DMSO) were added together with LPS. Cells were treated with 0.05% DMSO as the vehicle control. The stimulated murine macrophage cell line RAW 264.7 cells were washed with PBS and lysed in an ice-cold RIPA buffer (Tris-HCl, pH 7.2, 25 mM; 0.1% SDS; 1% Triton X-100; 1% sodium deoxycholate; 0.15 M NaCl; 1 mM EDTA) containing 1 mM phenylmethyl sulphonyl fluoride (PMSF), 10 μg/mL aprotinin, 1 mM sodium ortho-vanadate, and 5 μg/mL leupeptin. Protein concentrations were determined using the BCA method (Pierce, Rockford, Ill.). The samples (50 μg of protein) were mixed with 5-fold of sample buffer containing 0.3 M Tris-HCl (pH 6.8), 25% 2-mercaptoethanol, 12% sodium dodecyl sulphate (SDS), 25 mM EDTA, 20% glycerol, and 0.1% bromophenol blue. The mixtures were boiled at 100° C. for 5 min, prerun on a stacking gel, and then resolved by 12% SDS-polyacrylamide minigels at a constant current of 20 mA. For western blot, proteins on the gel were electro-transferred onto a […] immobile polyvinylidene fluoride (PVDF) membrane with a transfer buffer composed of 25 mM Tris-HCl (pH 8.9), 192 mM glycine, and 20% methanol, as described by Pan et al. (2000). […] The densities of the bands were quantitated using a densitometer (AlphaImager 2200 System). […] (7b) Inhibition Against LPS-Induced NO Production in RAW 264.7 Macrophage The LPS-induced NO production by the macrophages was determined as nitrite concentration in the culture medium according to the Griess reaction. […] The absorbance of the mixture at 550 nm was measured with an ELISA plate reader (Dynatech MR-7000; Dynatech Laboratories, Chantilly, Va., USA). […]

COX-2 [5] = experiment: COX-2 protein expression in LPS-stimulated RAW 264.7 macrophages (western blot); assay type: cell-based, murine; conditions: LPS 100 ng/ml, RAW 264.7, western blot
Method: RAW 264.7 cells were cultured in Rosewell Park Memorial Institute (RPMI) 1640 media (without phenol red) supplemented with 10% endotoxin-free, heat-inactivated fetal calf serum, 100 units/ml penicillin, and 100 μg/ml streptomycin. When the cells reached a density of 2-3×10^6 cells/ml, they were activated by incubation in a medium containing E. coli lipopolysaccharide (LPS) (100 ng/ml). Various concentrations of compounds of the disclosure in dimethyl sulphoxide (DMSO) were added together with LPS. Cells were treated with 0.05% DMSO as the vehicle control. The stimulated murine macrophage cell line RAW 264.7 cells were washed with PBS and lysed in an ice-cold RIPA buffer (Tris-HCl, pH 7.2, 25 mM; 0.1% SDS; 1% Triton X-100; 1% sodium deoxycholate; 0.15 M NaCl; 1 mM EDTA) containing 1 mM phenylmethyl sulphonyl fluoride (PMSF), 10 μg/mL aprotinin, 1 mM sodium ortho-vanadate, and 5 μg/mL leupeptin. Protein concentrations were determined using the BCA method (Pierce, Rockford, Ill.). The samples (50 μg of protein) were mixed with 5-fold of sample buffer containing 0.3 M Tris-HCl (pH 6.8), 25% 2-mercaptoethanol, 12% sodium dodecyl sulphate (SDS), 25 mM EDTA, 20% glycerol, and 0.1% bromophenol blue. The mixtures were boiled at 100° C. for 5 min, prerun on a stacking gel, and then resolved by 12% SDS-polyacrylamide minigels at a constant current of 20 mA. For western blot, proteins on the gel were electro-transferred onto a […] immobile polyvinylidene fluoride (PVDF) membrane with a transfer buffer composed of 25 mM Tris-HCl (pH 8.9), 192 mM glycine, and 20% methanol, as described by Pan et al. (2000). Membrane blocking was then carried out at room temperature for 1 h in blocking solution (20 mM Tris-HCl pH 7.4, 125 mM NaCl, 0.2% Tween 20, 1% bovine serum albumin, and 0.1% sodium azide). The membrane was incubated with the primary antibody of iNOS and COX-2 at 4° C. overnight. The membranes were subsequently probed with selected IgG antibody conjugated to horseradish peroxidase (Transduction Laboratories, Lexington, Ky.) and visualized using enhanced chemiluminescence (ECL, Amersham). The densities of the bands were quantitated using a densitometer (AlphaImager 2200 System). All the membranes were stripped and reprobed for β-actin (Sigma Chemical Co., St. Louis, Mo.) as loading control. […] The inhibition of iNOS induction by compounds of the disclosure may be due to down regulation of iNOS gene expression. EGCG and compounds of the disclosure with antioxidant activities may inhibit the ROS/RNS-mediated activation of NF-κB, the transcription factor that promotes gene expression of iNOS. […] The difference in their ability to inhibit production of iNOS and COX-2 may be due to other mechanisms involved in addition to blocking the NF-κB signalling pathway. EGCG and its derivatives may also suppress the cytokine production by breaking down the mRNA and protein of iNOS and COX-2 to varied degrees. (7b) Inhibition Against LPS-Induced NO Production in RAW 264.7 Macrophage The LPS-induced NO production by the macrophages was determined as nitrite concentration in the culture medium according to the Griess reaction. The culture medium of the control and treated cells was collected and centrifuged. An aliquot (100 μL) of the supernatant was mixed with an equal volume of Griess reagent. The absorbance of the mixture at 550 nm was measured with an ELISA plate reader (Dynatech MR-7000; Dynatech Laboratories, Chantilly, Va., USA). […]

[6] = system: LPS-induced NO production; experiment: LPS-induced NO production in RAW 264.7 macrophage (Griess reaction); assay type: cell-based, murine; conditions: LPS-stimulated RAW264.7 macrophages
Method: RAW 264.7 cells were cultured in Rosewell Park Memorial Institute (RPMI) 1640 media (without phenol red) supplemented with 10% endotoxin-free, heat-inactivated fetal calf serum, 100 units/ml penicillin, and 100 μg/ml streptomycin. When the cells reached a density of 2-3×10^6 cells/ml, they were activated by incubation in a medium containing E. coli lipopolysaccharide (LPS) (100 ng/ml). Various concentrations of compounds of the disclosure in dimethyl sulphoxide (DMSO) were added together with LPS. Cells were treated with 0.05% DMSO as the vehicle control. The stimulated murine macrophage cell line RAW 264.7 cells were washed with PBS and lysed in an ice-cold RIPA buffer (Tris-HCl, pH 7.2, 25 mM; 0.1% SDS; 1% Triton X-100; 1% sodium deoxycholate; 0.15 M NaCl; 1 mM EDTA) containing 1 mM phenylmethyl sulphonyl fluoride (PMSF), 10 μg/mL aprotinin, 1 mM sodium ortho-vanadate, and 5 μg/mL leupeptin. Protein concentrations were determined using the BCA method (Pierce, Rockford, Ill.). The samples (50 μg of protein) were mixed with 5-fold of sample buffer containing 0.3 M Tris-HCl (pH 6.8), 25% 2-mercaptoethanol, 12% sodium dodecyl sulphate (SDS), 25 mM EDTA, 20% glycerol, and 0.1% bromophenol blue. The mixtures were boiled at 100° C. for 5 min, prerun on a stacking gel, and then resolved by 12% SDS-polyacrylamide minigels at a constant current of 20 mA. For western blot, proteins on the gel were electro-transferred onto a […] immobile polyvinylidene fluoride (PVDF) membrane with a transfer buffer composed of 25 mM Tris-HCl (pH 8.9), 192 mM glycine, and 20% methanol, as described by Pan et al. (2000). Membrane blocking was then carried out at room temperature for 1 h in blocking solution (20 mM Tris-HCl pH 7.4, 125 mM NaCl, 0.2% Tween 20, 1% bovine serum albumin, and 0.1% sodium azide). The membrane was incubated with the primary antibody of iNOS and COX-2 at 4° C. overnight. The membranes were subsequently probed with selected IgG antibody conjugated to horseradish peroxidase (Transduction Laboratories, Lexington, Ky.) and visualized using enhanced chemiluminescence (ECL, Amersham). The densities of the bands were quantitated using a densitometer (AlphaImager 2200 System). All the membranes were stripped and reprobed for β-actin (Sigma Chemical Co., St. Louis, Mo.) as loading control. […] The inhibition of iNOS induction by compounds of the disclosure may be due to down regulation of iNOS gene expression. […] (7b) Inhibition Against LPS-Induced NO Production in RAW 264.7 Macrophage The LPS-induced NO production by the macrophages was determined as nitrite concentration in the culture medium according to the Griess reaction. […] The absorbance of the mixture at 550 nm was measured with an ELISA plate reader (Dynatech MR-7000; Dynatech Laboratories, Chantilly, Va., USA). […]

PGE2 production = PGE2 production in LPS-stimulated RAW264.7 macrophages (EIA); assay type: cell-based, mouse; conditions: FIG. 10
Text: The level of PGE2 released into the culture medium was quantified by a specific enzyme immunoassay (EIA) method using a ACE™ EIA kit according to the manufacturer's instructions. FIG. 10 illustrates that the production of the inflammatory mediator PGE2 was inhibited by 10a (EGCG-DPA). The EGCG ester 10a has improved lipophilicity and cellular absorption, and therefore provides synergistic effects with respect to the DPA (a competitive inhibitor against the omega-6 fatty acid arachidonic acid) for the COX enzymes) and EGCG (COX-2 inhibitor) moieties.

iNOS mRNA = iNOS mRNA expression in LPS-stimulated RAW264.7 macrophages (RT-PCR); assay type: cell-based, mouse; conditions: FIG. 12
Method: (§2) Total RNA was isolated from mouse macrophage RAW264.7 cell using Trizol Reagent according to the manufacturer's instructions. Changes in the steady-state concentration of mRNA in iNOS, COX-2, and β-actin (control) were assessed by RT-PCR. Total RNA (2 μg) was converted to cDNA in a series of standard 10 μl reverse transcription reactions. DNA amplification was carried out in “Ready To Go” PCR Beads. The initial conditions were 95° C. for 5 min. Amplification 30 cycles of iNOS were 95° C. for 40 s, 65° C. for 60 s, and 72° C. for 2 min, followed by a 10 min extension at 72° C. The thermal cycle conditions of COX-2 were initiated at 95° C. for […], then 30 cycles of amplification (94° C. for 45 s, 55° C. for 60 s, and 72° C. for 2 min) were performed followed by 10 min extension at 72° C. The PCR products were separated by electrophoresis on a 1% agarose gel and visualized by ethidium bromide staining. Amplification of β-actin served as a control for sample loading and integrity. PCR was performed on the cDNA using the following sense and antisense primer: iNOS, forward primer 5′-[…]-[…]-3′ (2944-2968), reverse primer 5′-[…]-[…]-3′ (3419-3443); COX-2, forward primer 5′-[…]-[…]-3′ (1094-1117), reverse primer 5′-[…]-3′ (1931-1954); β-actin, forward primer 5′-[…]-3′, reverse primer 5′-[…]-3′. Confirmation of the correct amplicons was obtained by direct DNA sequencing of the PCR products.

COX-2 mRNA = COX-2 mRNA expression in LPS-stimulated RAW264.7 macrophages (RT-PCR); assay type: cell-based, mouse; conditions: FIG. 12
Method: as §2

HCV NS3/4A protease, sequence (P27958 1027-1657): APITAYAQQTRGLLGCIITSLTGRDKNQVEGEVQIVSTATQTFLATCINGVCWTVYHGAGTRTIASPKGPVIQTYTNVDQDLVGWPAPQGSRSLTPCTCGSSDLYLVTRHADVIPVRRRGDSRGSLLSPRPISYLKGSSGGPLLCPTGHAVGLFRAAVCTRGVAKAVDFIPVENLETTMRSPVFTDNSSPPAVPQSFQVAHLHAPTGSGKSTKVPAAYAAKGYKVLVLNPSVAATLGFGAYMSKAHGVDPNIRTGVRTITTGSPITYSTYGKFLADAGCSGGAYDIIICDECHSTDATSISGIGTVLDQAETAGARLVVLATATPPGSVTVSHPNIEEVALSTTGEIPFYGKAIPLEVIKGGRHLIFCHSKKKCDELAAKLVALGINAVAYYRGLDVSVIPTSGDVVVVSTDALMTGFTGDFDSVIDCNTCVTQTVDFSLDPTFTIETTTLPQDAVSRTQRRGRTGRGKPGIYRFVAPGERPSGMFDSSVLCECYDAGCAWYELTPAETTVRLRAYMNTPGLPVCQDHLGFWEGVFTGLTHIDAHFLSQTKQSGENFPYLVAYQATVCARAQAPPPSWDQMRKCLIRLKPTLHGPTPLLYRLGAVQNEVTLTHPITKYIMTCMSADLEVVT
HCV NS3/4A protease, sequence (P27958 1658-1711): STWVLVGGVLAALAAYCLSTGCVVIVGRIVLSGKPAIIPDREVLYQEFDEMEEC

## CCCC(=O)Oc1cc(OC(=O)CCC)c2c(c1)OC(c1cc(OC(=O)CCC)c(OC(=O)CCC)c(OC(=O)CCC)c1)C(OC(=O)c1cc(OC(=O)CCC)c(OC(=O)CCC)c(OC(=O)CCC)c1)C2 (stereo not drawn) [Compound 1g, EGCG-octabutyrate]
HCV NS3/4A protease; HCV NS3/4A protease 0.5 μg/ml, 30 min, room temperature
  IC50: 980 nM
HCV NS3/4A protease; fold stronger than embelin
  HCV protease inhibitory activity relative to embelin: 10 fold
[1]; AOM treated mice, FIG. 7
  Colon tumors: inhibited to a lesser level
[1]; AOM-injected male ICR mice, dietary supplementation
  Tumorogenesis in terms of number and size of ACF: significantly suppressed tumorogenesis
iNOS [2]
  iNOS expression in mice colon: dose-dependent inhibitory effect
COX-2 [3]
  COX-2 expression in mice colon: dose-dependent inhibitory effect

## EGCG-docosapentaenoate [Compound 10a]
iNOS [4]
  Inhibition of iNOS protein expression: inhibited
COX-2 [5]
  Inhibition of COX-2 protein expression: inhibited
[6]
  Inhibition of NO production (in words): inhibited by 10a (EGCG-DPA) more effectively than DPA
PGE2 production
  Inhibition of PGE2 production: inhibited
iNOS mRNA
  Inhibition of iNOS mRNA expression: inhibited
COX-2 mRNA
  Inhibition of COX-2 mRNA expression: inhibited
